Consider 21 molecules from patent publication US9238639B2, “Aromatic ring compound” (TAKEDA PHARMACEUTICAL COMPANY LIMITED, priority 2012, dated 2016).

The assay has as its target T1, human GOAT (Homo sapiens, UniProt Q96T53).
T1 construct: made in house; host or cells: Sf9 insect cells (BacToBac baculovirus, pFastBac1 vector); microsome fraction
T1 sequence (Q96T53 1-435): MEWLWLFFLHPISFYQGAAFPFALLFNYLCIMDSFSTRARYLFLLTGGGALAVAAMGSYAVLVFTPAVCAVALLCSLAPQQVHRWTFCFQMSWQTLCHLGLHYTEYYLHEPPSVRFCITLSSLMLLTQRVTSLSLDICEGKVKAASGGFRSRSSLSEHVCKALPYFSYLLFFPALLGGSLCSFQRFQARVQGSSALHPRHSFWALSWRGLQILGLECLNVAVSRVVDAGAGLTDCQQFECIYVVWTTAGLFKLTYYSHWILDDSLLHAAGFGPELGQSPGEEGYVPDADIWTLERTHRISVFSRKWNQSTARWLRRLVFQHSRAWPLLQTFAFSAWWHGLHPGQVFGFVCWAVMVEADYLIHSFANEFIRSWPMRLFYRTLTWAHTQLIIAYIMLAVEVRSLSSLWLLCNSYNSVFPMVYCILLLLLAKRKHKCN
Nature of the assay: GOAT enzyme activity measurement by HTRF method (human GOAT-expressing microsome fraction). In kind it is biochemical. Particulars: 10 μM compound; human GOAT-expressing Sf9 microsome fraction; octanoyl-CoA and Ghrelin-biotin substrates; 0% control without compound, 100% control without enzyme. As to the method:
Human GOAT (Accession NO: EU518495) cDNA was amplified by PCR including reaction of (1) 98° C., 1 min, (2) 35 repeats of 98° C., 10 sec·65° C., 15 sec·72° C., 80 sec, and (3) 72° C., 5 min, using human stomach cDNA library (Takara Bio) as a template and Pyrobest DNA Polymerase (Takara Bio). The amplified fragment was treated with restriction enzymes, inserted into Stu I/Not I sites of pFastBacl (Invitrogen) by using Ligation High (TOYOBO), and transfected into ECOS JM109 (Nippon Gene) to construct pFB/hGOAT.
Production of Baculovirus and Preparation of Insect Cell Microsome Fraction
For preparation of baculovirus from pFB/hGOAT, BacToBac baculovirus expression system (Invitrogen) was used. The virus titer was measured by Real-Time PCR using SYBR Green (Takara Bio). Sf9 cells were infected with the obtained baculovirus at Multiplicity of Infection (MOI)=0.2, and cultured for 70 hr. The Sf9 cells were recovered, suspended in a suspension buffer (TBS (0.3 M NaCl), 1 mM DTT, 1 mM EDTA, Complete (Roche) (1 tablet/50 mL)), and the cells were disrupted twice on ice at 20000 rpm, 30 sec using a polytron homogenizer. The cell disruption solution was centrifuged at 1000 rpm for 10 min at 4° C., the supernatant was further ultracentrifuged at 40000 rpm for 30 min at 4° C. and the precipitate was recovered. The obtained precipitate was suspended in the suspension buffer used above to give a human GOAT-expressing microsome fraction. The protein level was measured using BCA Protein assay Reagent (PIERCE).
Enzyme Activity Measurement by HTRF Method
A compound solution (2 μL) diluted with an assay buffer containing 50 mM Tris-HCl (pH 7.5), 0.5% TWEEN20, and Complete to 15% DMSO and 90 μg/mL human GOAT-expressing microsome fraction (2 μL) were incubated at room temperature for 20 min, after which a substrate mixed solution (2 μL) containing 30 μM octanoyl-CoA (CHEM-IMPLEX) and 3 μM Ghrelin-biotin ([…]epsilon aminocaproic acid-biotin (Greiner Coutom synthesis)) was added to 384 white small volume plate (Greiner). After reaction for 20 min, 2 μL of citrate buffer (pH3) (mixed solution of 0.1 M citric acid (39.8 mL) and 0.2 M Na2HPO4 (10.2 mL)), 2 μL of 25 nM anti-active ghrelin antibody (produced in mouse), 5 μL of Eu(K)-Anti Mouse IgG Pab (Cis Bio) 100-fold diluted with HTRF detection buffer (Cis Bio) and 5 μL of streptavidin-Xlent (Cis Bio) 66.6-fold diluted with HTRF detection buffer (Cis Bio) were added. After incubation at room temperature for 1 hr or longer, the fluorescence values at 620 nm and 665 nm were measured by Envision (PerkinElmer). The data was calculated [(665 nm signal/620 nm signal)×10^4], and the inhibitory activity against human GOAT was shown by the data where 0% control was without compound, and 100% control was without enzyme.
In general terms: TR-FRET usually uses a lanthanide donor and a delayed reading to cut background.

Consider `CCS(=O)(=O)NC(=O)Cc1csc2cc(OCc3ccc(Cl)cc3Cl)ccc12` [Example 138, 2-(6-((2,4-Dichlorobenzyl)oxy)-1-benzothiophen-3-yl)-N-(ethylsulfonyl)acetamide], for which the inhibition (in general, the relative decrease from the control value, in per cent) at 10 µM came to 83.2%.
Under `Cc1nc(C(F)(F)F)ncc1COc1cc(C)c2c(CC(=O)O)csc2c1` [Example 140, (4-Methyl-6-((4-methyl-2-(trifluoromethyl)pyrimidin-5-yl)methoxy)-1-benzothiophen-3-yl)acetic acid] stands 100%; under `Cc1ccc(CCc2ccc3c(CC(=O)O)csc3c2)c(C)n1` [Example 182, (6-(2-(2,6-Dimethylpyridin-3-yl)ethyl)-1-benzothiophen-3-yl)acetic acid], 97.3%.
Under `Cc1ccc(/C=C/c2ccc3c(CC(=O)O)csc3c2)c(C)n1` [Example 183, (6-((E)-2-(2,6-dimethylpyridin-3-yl)vinyl)-1-benzothiophen-3-yl)acetic acid] stands 83.1%; under `CC(=O)NCCc1coc2cc(OCc3ccc(Cl)cc3Cl)ccc12` [Example 196, N-(2-(6-(2,4-Dichlorobenzyloxy)-1-benzofuran-3-yl)ethyl)acetamide], 73%.
For `CC(=O)NCC[C@@H]1COc2cc(OCc3ccc(Cl)cc3Cl)ccc21` [Example 197, N-(2-((3S)-6-((2,4-Dichlorobenzyl)oxy)-2,3-dihydro-1-benzofuran-3-yl)ethyl)acetamide], the inhibition at 10 µM stood at 69%.
Under `CCC(=O)NCC[C@@H]1COc2cc(OCc3ccc(Cl)cc3Cl)ccc21` [Example 198, N-(2-((3S)-6-((2,4-Dichlorobenzyl)oxy)-2,3-dihydro-1-benzofuran-3-yl)ethyl)propanamide] stands 59%; under `O=C(O)C[C@@H]1COc2cc(OCc3ccc(Cl)cc3Cl)ccc21` [Example 262, ((3S)-6-((2,4-Dichlorobenzyl)oxy)-2,3-dihydro-1-benzofuran-3-yl)acetic acid], 93%.
Under `O=C(O)C[C@H]1COc2cc(OCc3ccc(Cl)cc3Cl)ccc21` [Example 263, ((3R)-6-((2,4-Dichlorobenzyl)oxy)-2,3-dihydro-1-benzofuran-3-yl)acetic acid] stands 86%.
On to `O=C(O)C1(CO)COc2cc(OCc3ccc(Cl)cc3Cl)ccc21` (stereo not drawn) [Example 279, 6-((2,4-Dichlorobenzyl)oxy)-3-(hydroxymethyl)-2,3-dihydro-1-benzofuran-3-carboxylic acid], for which the inhibition at 10 µM is 81%.
Under `COCC1(C(=O)O)COc2cc(OCc3ccc(Cl)cc3Cl)ccc21` (stereo not drawn) [Example 281, 6-((2,4-Dichlorobenzyl)oxy)-3-(methoxymethyl)-2,3-dihydro-1-benzofuran-3-carboxylic acid] stands 85%.
Under `Cc1ccc(COc2cc(C)c3c(c2C)OCC3CC(=O)O)c(C)n1` (stereo not drawn) [Example 289, (6-((2,6-Dimethylpyridin-3-yl)methoxy)-4,7-dimethyl-2,3-dihydro-1-benzofuran-3-yl)acetic acid] stands 94.8%; under `Cc1cc(OCc2ccc(Cl)cc2Cl)c(C)c2c1C(CC(=O)O)CO2` (stereo not drawn) [Example 291, (6-((2,4-Dichlorobenzyl)oxy)-4,7-dimethyl-2,3-dihydro-1-benzofuran-3-yl)acetic acid], 96.2%; under `COC(=O)Cc1csc2cc(OCc3cc(C(F)(F)F)nn3C)cc(F)c12` [Example 302, Methyl (4-fluoro-6-((1-methyl-3-(trifluoromethyl)-1H-pyrazol-5-yl)methoxy)-1-benzothiophen-3-yl)acetate], 99.9%.
As for `Cn1nc(C(F)(F)F)cc1COc1cc(F)c2c(CC(=O)O)csc2c1` [Example 303, (4-Fluoro-6-((1-methyl-3-(trifluoromethyl)-1H-pyrazol-5-yl)methoxy)-1-benzothiophen-3-yl)acetic acid], the inhibition at 10 µM stood at 104%.
Under `COC(=O)Cc1csc2cc(OCc3ccc(C(F)(F)F)nc3C)cc(F)c12` [Example 304, Methyl (4-fluoro-6-((2-methyl-6-(trifluoromethyl)pyridin-3-yl)methoxy)-1-benzothiophen-3-yl)acetate] stands 94.9%; under `Cc1nc(C(F)(F)F)ccc1COc1cc(F)c2c(CC(=O)O)csc2c1` [Example 305, (4-Fluoro-6-((2-methyl-6-(trifluoromethyl)pyridin-3-yl)methoxy)-1-benzothiophen-3-yl)acetic acid], 102%.
Under `COC(=O)Cc1c(C)sc2cc(OCc3cc(C(F)(F)F)nn3C)cc(Cl)c12` [Example 306, Methyl (4-chloro-2-methyl-6-((1-methyl-3-(trifluoromethyl)-1H-pyrazol-5-yl)methoxy)-1-benzothiophen-3-yl)acetate] stands 99.5%; under `Cc1sc2cc(OCc3cc(C(F)(F)F)nn3C)cc(Cl)c2c1CC(=O)O` [Example 307, (4-Chloro-2-methyl-6-((1-methyl-3-(trifluoromethyl)-1H-pyrazol-5-yl)methoxy)-1-benzothiophen-3-yl)acetic acid], 106%.
Under `COC(=O)Cc1c(C)sc2cc(OCc3ccc(C(F)(F)F)nc3C)cc(Cl)c12` [Example 308, Methyl (4-chloro-2-methyl-6-((2-methyl-6-(trifluoromethyl)pyridin-3-yl)methoxy)-1-benzothiophen-3-yl)acetate] stands 51.5%.
As for `Cc1nc(C(F)(F)F)ccc1COc1cc(Cl)c2c(CC(=O)O)c(C)sc2c1` [Example 309, (4-Chloro-2-methyl-6-((2-methyl-6-(trifluoromethyl)pyridin-3-yl)methoxy)-1-benzothiophen-3-yl)acetic acid], the inhibition at 10 µM was 103%.
